US20080108706A1, “Chemical resection of pancreas” (priority 1999, published 2008)
“Also recorded” adds a separate entry of the source.

Columns and labels:
[1] = Beagle study Part A: long-term toxicity and pancreatic function after (R,R)-(HO)2DEHSPM; type: in vivo, beagles; settings: for SGPT / alkaline phosphatase: approximately 60-days post-drug
Procedure: (§1) Five male beagles approximately 6-8 months of age were obtained from Harlan Sprague Dawley. They were provided with food and water ad libitum and were allowed to acclimate to their new surroundings for two weeks. The animals were weighed prior to starting drug administration and were weighed once per week during the drug dosing period. A CBC and chemistry panel were performed every 1-2 weeks. The drug study was performed in two stages. In the first phase, three animals were given the drug at 2.15 mg/kg/day (dogs #516, 518 and 526). In the second phase, the other two dogs were given the drug at 4.3 mg/kg/day (dogs #490 and 494). In both experiments, the daily drug dose was divided and administered twice daily at 12-hour intervals.
(§2) The results of the long-term washout and subsequent toxicity of the (R,R)—(HO)2DEHSPM are summarized. Briefly, the drug was initially thought to be well tolerated at the 2.15 mg/kg/day dose. In order to compare the long-term washout of the (HO)2DEHSPM as compared to DEHSPM, it was decided not to sacrifice the animal (#516) until 75-days post-drug. […] Chronic pancreatitis or intestinal malabsorption was suspected. […] Inasmuch as the dog was imminently scheduled for sacrifice, no treatment was initiated. At necropsy 75-days post-drug, there was little, if any, abdominal fat and the animal's pancreas was atrophied as described below.
(§3) However, approximately 55-60 days post-drug, it was noted that although the dogs in the 4.3 mg/kg/day group (#490 and 494) were eating well and were bright, alert and responsive, they began losing weight (2 kg). […] In order to further confirm the exocrine pancreatic insufficiency, additional experiments were performed.
(§4) The two dogs (#490 and 494) were fed a prescription canned and dry dog food and were supplemented with Viokase, a pancreatic enzyme preparation, by mixing three tablets with food or by oral administration immediately before each feeding. The dogs were maintained on this regimen for approximately three weeks. During this time, their weight and blood chemistries were closely monitored. The Viokase supplementation was then stopped and the same parameters were again evaluated. One week after the Viokase administration had ceased, the animals were euthanized and tissues were taken for histology and for the determination of tissue polyamine levels.

[2] = test system: exocrine pancreas; experiment: as above; type: in vivo, beagles
Procedure: as §1, §2, §3, §4

[3] = Non-tumor-bearing toxicity controls, same regimens; type: in vivo; settings: group 3, NTB; IV QD 3, 4, 6-9, 14, 17, 18; total dosage 240 mg/kg
[4] = test system: exocrine pancreas; experiment: Beagle study Part B: comparison of (R,R)- v. (S,S)-(HO)2DEHSPM; type: in vivo, beagles
Text: As the pancreatic insufficiency side-effect that was observed after the administration of the (R,R)—(HO)2DEHSPM to the beagles may have been related to the (R,R)-chirality of the molecule, the (S,S)-enantiomer was synthesized and was compared in a head-to-head fashion with the (R,R)-enantiomer. To perform this experiment, five male beagles approximately 6-8 months of age were obtained from Harlan Sprague Dawley. There were provided with food and water ad libitum and were allowed to acclimate to their new surroundings for two weeks. The animals were weighed prior to starting drug administration and were weighed once per week during the drug dosing period. A CBC and chemistry panel and a Holter monitor were performed once per week. In addition to the usual tests, additional pancreatic function-specific tests were also performed. These additional evaluations included a fecal trypsin test, examination of the feces for fecal fat and serum trypsin-like immunoreactivity determinations. It was hoped that these signs of pancreatic insufficiency would only appear in the animals given the (R,R)-enantiomer and would not be observed in the dogs that were given the (S,S)-molecule. The pancreatic insufficiency may not become evident until approximately 7-8 weeks post-drug. At the conclusion of the experiment, all of the animals were sacrificed and the histology and tissue polyamine levels were determined.
Five male beagles approximately 6-8 months of age were obtained from Harlan Sprague Dawley. They were provided with food and water ad libitum and were allowed to acclimate to their new surroundings for two weeks. Once two sets of baseline data were obtained, the animals were randomly divided into three groups: two of the dogs (#468 and 500) received the (R,R)—(HO)2DEHSPM; two of the animals (#440 and 476) were given (S,S)—(HO)2DEHSPM; and one dog (#452) served as an untreated (saline only) control. The dogs were given the (R,R)—or (S,S)—(HO)2DEHSPM at a dose of 4.3 mg/kg/day subcutaneously in divided doses, 2.15 mg/kg BID.
The animals were weighed weekly during the acclimation period, the drug dosing period and throughout the post-drug observational period. A CBC, chemistry panel and pancreatic function tests (trypsin-like immunoreactivity, fecal trypsin, fecal fat, etc.) were performed once per week. Additional tests, e.g., glucose tolerance and fat absorption, were performed as necessary. The dogs were Holter monitored twice during the acclimation period and then weekly during drug dosing.

[5] = dog #516, 2.15 mg/kg/day, approximately two months post-drug
[6] = dogs #490 and 494, 4.3 mg/kg/day, approximately 55-60 days post-drug
[7] = 4.3 mg/kg/day sc for 13 days, post-drug
[8] = approximately five weeks post-drug, 4.3 mg/kg/day sc for 13 days
[9] = dog #468, 4.3 mg/kg/day sc for 13 days
[10] = dog #500, 4.3 mg/kg/day sc for 13 days

## CCNCC[C@@H](O)CNCCCCNC[C@H](O)CCNCC.Cl.Cl.Cl.Cl [(R,R)-(HO)2DEHSPM, N^1,N^14-Diethyl-3(R) 12(R)-dihydroxyhomospermine tetrahydrochloride]
[1]; dog #490, 4.3 mg/kg/day
  SGPT: 1108 U/L
  alkaline phosphatase: 542 U/L
[1]; dog #494, 4.3 mg/kg/day
  SGPT: 776 U/L
  alkaline phosphatase: 436 U/L
[1]; [5]
  SGPT (routine chemistry panel): elevated
[1]; [6]
  SGPT (blood chemistries): elevated
[2]; 75-, 78-, 88- and 92-days post-treatment, all cases
  pancreas at necropsy: Severe atrophy
[2]; 75-days post-treatment sample
  histopathology of pancreatic sample: moderate to severe pancreatitis
[2]; both dogs #490 and 494, 4.3 mg/kg/day, throughout Viokase and post-Viokase periods
  trypsin-like immunoreactivity (TLI): below 2.0 ng/ml
[2]; dog #516, 2.15 mg/kg/day
  serum trypsin-like immunoreactivity test: confirmed the presence of exocrine pancreatic insufficiency
[2]; dog #516, 2.15 mg/kg/day, 75-days post-drug
  pancreas at necropsy: atrophied
[2]; [5]
  body weight: begun losing weight
  fecal check (fat in stool): large amount of fat
[2]; dogs #490 and 494, 4.3 mg/kg/day
  qualitative fecal fat and trypsin-like immunoreactivity: confirmed the presence of exocrine pancreatic insufficiency
[2]; [6]
  weight loss: 2 kg
[2]; dogs #490 and 494, 4.3 mg/kg/day, one week after Viokase ceased
  pancreas at necropsy: severely atrophied
[2]; dogs #490 and 494, 4.3 mg/kg/day, throughout the experiment
  glucose levels (endocrine functionality): normal
[3]
  Percent Body Wt. Loss: 30%
[4]; 4.3 mg/kg/day sc for 13 days, 52- to 64-days post-drug
  histopathology of pancreas at necropsy: moderate to severe atrophy of the exocrine pancreases
[4]; [7]
  alopecia: also noted
  diagnosis from pancreatic function tests: confirmed a diagnosis of exocrine pancreatic insufficiency
  glucose tolerance test (endocrine pancreas): “normal” response
  post-feeding serum samples after a fatty meal: clear, indicating an inability to digest fats
[4]; 4.3 mg/kg/day sc for 13 days, until euthanasia 52- to 64-days post-drug
  clinical course: continued to deteriorate
[4]; 10-days post-drug
  histology of pancreatic tissue samples: no histological abnormalities
[4]; [8]
  TLI: began to decrease
  fecal trypsin test results: abnormal
[4]; approximately five weeks post-drug, 4.3 mg/kg/day sc for 13 days, both dogs of group
  body weight: began losing weight very rapidly
[4]; [9]
  frank and/or occult blood in stool, found until: about 17 days post-drug
  loss of body weight at end of drug dosing period: 1.4 kg
[4]; dog #468, day thirteen of drug administration, 4.3 mg/kg/day sc, 4.3 mg/kg/day
  clinical signs: bloody diarrhea and anorexia; also recorded: developed bloody diarrhea and stopped eating
[4]; dog #468, returned to normal during the 3.5 hours
  blood glucose level in glucose tolerance test: exceeded 160 mg/dl
[4]; [10]
  clinical signs: developed bloody diarrhea one-day post-drug
  gain of body weight at end of drug dosing period: 0.4 kg
[4]; dogs #468 and 500, 52- and 58-days post-drug
  pancreas at necropsy, gross appearance: greatly atrophied (about one-fourth the control weight)
